From article PMC11172375, “Preclinical Evaluation of Biodistribution and Toxicity of [^211At]PSMA-5 in Mice and Primates for the Targeted Alpha Therapy against Prostate Cancer” (International Journal of Molecular Sciences, 2024)

Legend:
[1] = TLC metabolite analysis of blood samples, monkeys; type: in vivo; settings: cynomolgus monkeys, plasma
Experimental: (§1) Monkeys were anesthetized with intramuscular administration of ketamine (10 mg/kg) and xylazine (0.5 mg/kg) with isoflurane inhalation anesthesia. Planar and Single Photon Emission Computed Tomography (SPECT) imaging was performed in monkeys using a γ-camera system (E-cam, Siemens, Erlangen, Germany) immediately after administration to 1 h and at 3 and 24 h post-administration of [^211At]PSMA-5 (9 MBq/kg), targeting the X-rays emitted from the daughter nuclide ^211Po (energy window: 79 keV ± 20%). Subsequent image analysis was performed by setting the regions of interest using Osirix MD software (Version 13, Pixmeo SARL, Bernex, Switzerland) and PMOD software (Version 3.903, PMOD Technologies, Fällanden, Switzerland). Blood samples were obtained pre-administration and at 1, 3, and 24 h post-administration, followed by euthanasia via bloodletting at 24 h.
(§2) The blood samples were centrifuged at 3000 rpm for 5 min, and the resulting plasma was mixed with twice the volume of ethanol, then agitated vigorously. The supernatants were analyzed by thin-layer chromatography (TLC).

[2] = Biodistribution in ICR mice; type: in vivo
Experimental: (§3) [^211At]PSMA-5 was administered intravenously to 25 mice, and its biodistribution was evaluated. For the toxicity study, three doses of [^211At]PSMA-5 (5, 12, and 35 MBq/kg, single dose) or saline were intravenously administered to 10 mice/group for the main evaluation point on day 1, and 5-mice/group for recovery evaluation on day 14, adhering to the ICH M3 (R2) guidelines. The dosage was determined based on our previous study using [^211At]NaAt. The monkeys were monitored for 24 h post-administration of [^211At]PSMA-5 (9 MBq/kg).
as §1
Urine and feces samples were collected at each time point. Following euthanasia, the brain, thyroid gland, salivary gland, lungs, heart, liver, kidney, spleen, pancreas, stomach, small intestine, large intestine, bladder, testes, and prostate tissues were collected. Organ weights and radiation doses were measured using a γ-counter (model: 2480Wizard2, PerkinElmer) and γ-camera system (E-cam) by appropriate cross-calibration.

[3] = Histological evaluation in monkeys; type: in vivo, cynomolgus monkeys; settings: 9 MBq/kg, 24 h
Experimental: as §3
The brain, salivary gland, thyroid, heart, lungs, liver, kidney, adrenal gland, pancreas, spleen, thymus, stomach, small intestine, large intestine, bladder, prostate, and testes were collected on days 1 or 14 in mice and at 24 h in monkeys. Additionally, the pituitary gland, tongue, trachea, esophagus, mesenteric lymph nodes, epididymis, seminal vesicles, skin, mammary glands, spinal cord, bone, bone marrow (femur), eyeball, and optic nerve were collected from the mice. After fixation, paraffin sections were prepared and stained with hematoxylin and eosin (HE). All the specimens were evaluated by an expert in toxic pathology using an integrated fluorescence microscope (BZ-X810; Keyence Corporation. Osaka, Japan). In mice, the brain, salivary glands, heart, lungs, liver, gallbladder, spleen, kidneys, and testes were weighed according to ICH S4 guideline.

[4] = Hematological examination in mice; type: in vivo, ICR mice; settings: for %Lymph / Hb / Ht / Platelet / RBC / WBC: mice
Experimental: as §3
A blood cell counter was used for the measurements (CB-1010; ARKRAY, Inc., Kyoto, Japan). Red blood cell count (RBC), hemoglobin concentration (Hb), hematocrit (Ht), white blood cell count (WBC), platelet count (platelet), lymphocytes (%Lymph), monocytes (%Mon), and granulocytes (%Gra) were calculated. Plasma was analyzed using a dry clinical chemistry analyzer (Spotchem D-00 QR D-02; ARKRAY, Inc., Kyoto, Japan). The levels of aspartate aminotransferase (AST), alanine aminotransferase (ALT), gamma-glutamyl transpeptidase (γ-GTP), lactate dehydrogenase (LDH), alkaline phosphatase (ALP), creatine kinase (CK), amylase (AMY), total bilirubin (TBIL), creatinine (CRE), urea nitrogen (BUN), glucose (GLU), total protein (TP), albumin (ALB), total cholesterol (TCHO), triglyceride (TG), and electrolytes (Na, K, and Cl) were measured.

[5] = TLC metabolite analysis of blood samples, mice; type: in vivo; settings: plasma
Experimental: as §1, §2

SMILES: O=C(O)CC[C@H](NC(=O)N[C@@H](CCCCNC(=O)[C@@H](Cc1ccc2ccccc2c1)NC(=O)c1ccc(CNC(=O)[C@@H](CCC(=O)O)NC(=O)[C@@H](CCC(=O)O)NC(=O)Cc2ccc([211At])cc2)cc1)C(=O)O)C(=O)O [[^211At]PSMA-5]
- metabolites in blood samples (TLC) [1]: no metabolites were detected
- time of peak kidney uptake post-administration ([2]; ICR mice, 5 MBq/kg i.v.): 6 h
- time of peak thyroid gland uptake ([2]; ICR mice, 5 MBq/kg i.v.): 3 h
- cumulative fecal excretion ([2]; ICR mice, 5 MBq/kg i.v., 6 h): 3.03 ± 1.90 %ID
- cumulative urinary excretion ([2]; ICR mice, 5 MBq/kg i.v., 6 h): 4.85 ± 1.76 %ID
- cumulative fecal excretion ([2]; ICR mice, 5 MBq/kg i.v., 24 h): 24.07 ± 8.54 %ID
- cumulative urinary excretion ([2]; ICR mice, 5 MBq/kg i.v., 24 h): 18.89 ± 4.57 %ID
- uptake in the thyroid ([2]; mice, 3 h post-administration): 51 %ID/g
- administration-related pathology in brain, salivary glands, thyroid, heart, liver, gallbladder, pancreas, rectum, kidney, bladder, adrenal glands, prostate [3]: No pathological abnormalities
- crypt epithelial cells of the small and large (cecum) intestines [3]: Mild single-cell necrosis/apoptosis
- tingible body macrophages in white pulp of the spleen, intraparotid and intrapulmonary lymph nodes [3]: mild increase
- blood examination versus control group ([4]; mice, 5, 12 and 35 MBq/kg, day 1 or day 14): no significant difference
- %Lymph ([4]; 5 MBq/kg i.v., day 1): 66.3 ± 15.8%
- Hb ([4]; 5 MBq/kg i.v., day 1): 12.9 ± 0.4 g/dL
- Ht ([4]; 5 MBq/kg i.v., day 1): 42.5 ± 1.4%
- Platelet ([4]; 5 MBq/kg i.v., day 1): 976 ± 524 10^3 cell/µL
- RBC ([4]; 5 MBq/kg i.v., day 1): 7.8 ± 0.3 10^6 cell/µL
- WBC ([4]; 5 MBq/kg i.v., day 1): 6.3 ± 4.1 10^3 cell/µL
- %Lymph ([4]; 5 MBq/kg i.v., day 14): 70 ± 8.8%
- Hb ([4]; 5 MBq/kg i.v., day 14): 14.4 ± 0.4 g/dL
- Ht ([4]; 5 MBq/kg i.v., day 14): 45.4 ± 1%
- Platelet ([4]; 5 MBq/kg i.v., day 14): 1120 ± 555 10^3 cell/µL
- RBC ([4]; 5 MBq/kg i.v., day 14): 8.7 ± 0.2 10^6 cell/µL
- WBC ([4]; 5 MBq/kg i.v., day 14): 6.9 ± 3.3 10^3 cell/µL
- %Lymph ([4]; 12 MBq/kg i.v., day 1): 62.6 ± 14.2%
- Hb ([4]; 12 MBq/kg i.v., day 1): 13.0 ± 0.8 g/dL
- Ht ([4]; 12 MBq/kg i.v., day 1): 42.6 ± 2.3%
- Platelet ([4]; 12 MBq/kg i.v., day 1): 1329 ± 845 10^3 cell/µL
- RBC ([4]; 12 MBq/kg i.v., day 1): 8.0 ± 0.5 10^6 cell/µL
- WBC ([4]; 12 MBq/kg i.v., day 1): 8.3 ± 4.9 10^3 cell/µL
- %Lymph ([4]; 12 MBq/kg i.v., day 14): 59.9 ± 12.1%
- Hb ([4]; 12 MBq/kg i.v., day 14): 13.8 ± 0.9 g/dL
- Ht ([4]; 12 MBq/kg i.v., day 14): 43.9 ± 3%
- Platelet ([4]; 12 MBq/kg i.v., day 14): 922 ± 608 10^3 cell/µL
- RBC ([4]; 12 MBq/kg i.v., day 14): 8.3 ± 0.6 10^6 cell/µL
- WBC ([4]; 12 MBq/kg i.v., day 14): 6.9 ± 1.9 10^3 cell/µL
- %Lymph ([4]; 35 MBq/kg i.v., day 1): 53.5 ± 16.9%
- Hb ([4]; 35 MBq/kg i.v., day 1): 12.8 ± 0.7 g/dL
- Ht ([4]; 35 MBq/kg i.v., day 1): 42.3 ± 2%
- Platelet ([4]; 35 MBq/kg i.v., day 1): 952 ± 444 10^3 cell/µL
- RBC ([4]; 35 MBq/kg i.v., day 1): 7.9 ± 0.3 10^6 cell/µL
- WBC ([4]; 35 MBq/kg i.v., day 1): 8.0 ± 5.2 10^3 cell/µL
- %Lymph ([4]; 35 MBq/kg i.v., day 14): 53.9 ± 6.4%
- Hb ([4]; 35 MBq/kg i.v., day 14): 13.6 ± 0.7 g/dL
- Ht ([4]; 35 MBq/kg i.v., day 14): 43.1 ± 2.4%
- Platelet ([4]; 35 MBq/kg i.v., day 14): 1331 ± 1037 10^3 cell/µL
- RBC ([4]; 35 MBq/kg i.v., day 14): 8.4 ± 0.4 10^6 cell/µL
- WBC ([4]; 35 MBq/kg i.v., day 14): 5.4 ± 2.8 10^3 cell/µL
- metabolites in blood samples (TLC) [5]: no metabolites were detected
